Test results published in patent US10544143B2, “4-azaindole compounds” (BRISTOL-MYERS SQUIBB COMPANY, priority 2017, dated 2020).
Read-outs that look alike come from different tables or passages of the source.

Assays:
human TLR9 = human TLR9 (Homo sapiens (Human), UniProt Q9NR96); experiment: TLR9 inhibition reporter assay (HEK-Blue SEAP);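 note: SEAP driven by an IFN-β minimal promoter with NF-κB and AP-1 sites, read after 22 h, compounds dosed 0.05 nM–50 µM, inhibition scaled between agonist plus DMSO and reference-inhibitor wells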
human TLR9, sequence (Q9NR96 26-1032): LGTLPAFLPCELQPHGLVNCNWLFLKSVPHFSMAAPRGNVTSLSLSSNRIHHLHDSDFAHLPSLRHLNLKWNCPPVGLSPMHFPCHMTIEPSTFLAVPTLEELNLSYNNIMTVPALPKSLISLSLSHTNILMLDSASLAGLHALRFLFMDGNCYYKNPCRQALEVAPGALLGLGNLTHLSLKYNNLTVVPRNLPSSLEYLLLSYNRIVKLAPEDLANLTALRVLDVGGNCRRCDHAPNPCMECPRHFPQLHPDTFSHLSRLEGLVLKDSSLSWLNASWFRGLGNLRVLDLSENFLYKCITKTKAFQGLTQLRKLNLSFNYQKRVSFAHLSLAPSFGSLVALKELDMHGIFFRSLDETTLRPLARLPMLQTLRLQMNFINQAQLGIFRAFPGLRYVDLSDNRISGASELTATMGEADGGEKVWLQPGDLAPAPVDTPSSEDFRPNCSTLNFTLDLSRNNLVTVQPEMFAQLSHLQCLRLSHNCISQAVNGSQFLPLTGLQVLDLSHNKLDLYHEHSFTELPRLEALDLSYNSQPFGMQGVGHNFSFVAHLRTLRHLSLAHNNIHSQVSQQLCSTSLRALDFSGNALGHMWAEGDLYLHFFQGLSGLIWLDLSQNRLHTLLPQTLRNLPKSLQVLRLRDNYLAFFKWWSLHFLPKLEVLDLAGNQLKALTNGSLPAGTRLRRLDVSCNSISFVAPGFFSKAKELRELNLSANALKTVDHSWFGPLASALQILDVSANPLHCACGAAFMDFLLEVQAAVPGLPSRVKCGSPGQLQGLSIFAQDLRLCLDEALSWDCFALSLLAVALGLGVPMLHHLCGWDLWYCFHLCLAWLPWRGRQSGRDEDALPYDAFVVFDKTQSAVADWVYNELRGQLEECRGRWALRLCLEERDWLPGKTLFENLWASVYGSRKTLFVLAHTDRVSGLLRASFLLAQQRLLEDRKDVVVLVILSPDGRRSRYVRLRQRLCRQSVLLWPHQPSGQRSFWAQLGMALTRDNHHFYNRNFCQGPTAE

human TLR8 = human TLR8 (Homo sapiens (Human), UniProt Q9NR97); experiment: TLR8 inhibition reporter assay (HEK-Blue SEAP);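 note: SEAP driven by IFN-β minimal promoter carrying NF-κB and AP-1 sites, compounds dosed 0.05 nM to 50 µM for 22 h, inhibition scaled between agonist-plus-DMSO and reference-inhibitor wells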
human TLR8, sequence (Q9NR97 27-1041): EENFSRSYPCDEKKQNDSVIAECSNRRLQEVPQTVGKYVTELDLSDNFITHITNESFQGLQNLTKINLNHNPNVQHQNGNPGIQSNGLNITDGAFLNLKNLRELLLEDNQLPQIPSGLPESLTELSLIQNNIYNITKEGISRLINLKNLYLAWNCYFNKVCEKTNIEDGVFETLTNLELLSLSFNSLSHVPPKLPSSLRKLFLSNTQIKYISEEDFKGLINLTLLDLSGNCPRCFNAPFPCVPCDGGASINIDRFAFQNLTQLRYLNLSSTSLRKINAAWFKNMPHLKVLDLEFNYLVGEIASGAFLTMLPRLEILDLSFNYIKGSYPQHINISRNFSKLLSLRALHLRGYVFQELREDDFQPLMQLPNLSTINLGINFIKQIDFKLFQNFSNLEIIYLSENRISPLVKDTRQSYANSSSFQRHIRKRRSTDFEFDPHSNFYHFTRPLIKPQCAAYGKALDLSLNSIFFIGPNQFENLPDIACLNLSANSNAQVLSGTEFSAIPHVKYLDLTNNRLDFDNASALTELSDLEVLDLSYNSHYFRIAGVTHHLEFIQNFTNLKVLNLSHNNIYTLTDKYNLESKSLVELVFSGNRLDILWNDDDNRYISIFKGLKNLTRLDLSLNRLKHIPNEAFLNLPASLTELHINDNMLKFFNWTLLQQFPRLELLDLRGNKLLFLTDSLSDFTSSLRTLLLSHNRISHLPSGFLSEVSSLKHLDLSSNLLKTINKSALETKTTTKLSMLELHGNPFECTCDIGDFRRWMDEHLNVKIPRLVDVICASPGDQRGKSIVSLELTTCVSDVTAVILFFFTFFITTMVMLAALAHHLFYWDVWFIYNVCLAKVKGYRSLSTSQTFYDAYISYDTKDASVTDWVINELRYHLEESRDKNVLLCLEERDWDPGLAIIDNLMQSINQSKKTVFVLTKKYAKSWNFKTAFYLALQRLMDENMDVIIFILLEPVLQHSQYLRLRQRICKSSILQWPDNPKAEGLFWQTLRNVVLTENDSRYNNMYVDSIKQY

human TLR7 = human TLR7 (Homo sapiens (Human), UniProt Q9NYK1); experiment: TLR7 inhibition reporter assay (HEK-Blue SEAP); type: cell-based
human TLR7, sequence (Q9NYK1 27-1049): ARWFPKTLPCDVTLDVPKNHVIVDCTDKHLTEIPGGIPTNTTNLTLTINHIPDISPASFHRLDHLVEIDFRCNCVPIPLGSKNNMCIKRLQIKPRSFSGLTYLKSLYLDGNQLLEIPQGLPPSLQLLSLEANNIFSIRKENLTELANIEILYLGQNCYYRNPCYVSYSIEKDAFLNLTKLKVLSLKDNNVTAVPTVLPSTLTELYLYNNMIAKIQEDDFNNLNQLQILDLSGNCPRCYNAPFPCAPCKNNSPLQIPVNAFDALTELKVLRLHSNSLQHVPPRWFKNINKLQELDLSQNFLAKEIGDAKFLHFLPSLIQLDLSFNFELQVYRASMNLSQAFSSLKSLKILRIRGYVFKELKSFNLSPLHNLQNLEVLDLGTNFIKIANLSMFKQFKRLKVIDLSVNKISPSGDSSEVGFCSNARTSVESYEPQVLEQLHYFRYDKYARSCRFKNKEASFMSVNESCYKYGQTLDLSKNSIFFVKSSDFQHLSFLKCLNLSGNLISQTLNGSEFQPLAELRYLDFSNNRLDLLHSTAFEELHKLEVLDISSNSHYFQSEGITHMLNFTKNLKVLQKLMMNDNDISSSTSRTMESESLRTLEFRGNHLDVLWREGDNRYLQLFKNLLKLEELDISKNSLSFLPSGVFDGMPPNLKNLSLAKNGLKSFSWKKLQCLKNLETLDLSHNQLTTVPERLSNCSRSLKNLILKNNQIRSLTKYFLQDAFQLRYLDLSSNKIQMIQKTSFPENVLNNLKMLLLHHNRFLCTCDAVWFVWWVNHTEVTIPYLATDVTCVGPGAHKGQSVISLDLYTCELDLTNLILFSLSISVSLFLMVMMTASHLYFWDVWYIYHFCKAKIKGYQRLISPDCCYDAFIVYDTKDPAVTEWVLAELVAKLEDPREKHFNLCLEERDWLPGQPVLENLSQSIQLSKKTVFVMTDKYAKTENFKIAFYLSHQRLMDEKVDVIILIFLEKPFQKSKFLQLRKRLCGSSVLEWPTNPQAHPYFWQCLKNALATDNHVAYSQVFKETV

[1] = read-out: TLR9 IC50, HEK-Blue human TLR9 cells, ODN2006 5 nM
[2] = read-out: TLR8 IC50, HEK-Blue human TLR8 cells, R848 15.9 μM
[3] = HEK-Blue human TLR7 cells, gardiquimod 7.5 μM
[4] = read-out: TLR9 IC50, HEK-Blue cells overexpressing human TLR9, ODN2006 5 nM stimulation, SEAP reporter
[5] = read-out: TLR8 IC50, HEK-Blue cells overexpressing human TLR8, R848 15.9 μM stimulation, SEAP reporter
[6] = HEK-Blue cells overexpressing human TLR7, gardiquimod 7.5 μM stimulation, SEAP reporter
[7] = read-out: TLR9 IC50, HEK-Blue cells overexpressing human TLR9, SEAP reporter, ODN2006 5 nM
[8] = read-out: TLR8 IC50, HEK-Blue cells overexpressing human TLR8, SEAP reporter, R848 15.9 μM
[9] = HEK-Blue cells overexpressing human TLR7, SEAP reporter, gardiquimod 7.5 μM
[10] = TLR9 IC50, HEK-Blue human TLR9 cells, ODN2006 5 nM
[11] = TLR8 IC50, HEK-Blue human TLR8 cells, R848 15.9 μM

For `Cc1c(-c2[nH]c3ccc(N4C[C@@H](C)N(C(=O)CN(C)C)[C@@H](C)C4)nc3c2C(C)C)cn2ncnc2c1C` [Example 862], the IC50 (human TLR9; [1]) was 7040 nM, the IC50 (human TLR8; [2]) was 2.2 nM and the IC50 (human TLR7; [3]) was 0.29 nM.

Compound `Cc1c(-c2[nH]c3ccc(N4CCN(CC5(C)COC5)CC4)nc3c2C(C)C)cn2ncnc2c1C` [Example 97] has an IC50 (human TLR9; [4]) of over 50000 nM, an IC50 (human TLR8; [5]) of 4.1 nM and an IC50 (human TLR7; [6]) of 28 nM.

`Cc1c(-c2[nH]c3ccc(N4CCN(C5CCS(=O)(=O)CC5)C[C@@H]4C)nc3c2C(C)C)cn2ncnc2c1C` [Example 815] gave an IC50 (human TLR9; [1]) of over 50000 nM, an IC50 (human TLR8; [2]) of 1.4 nM and an IC50 (human TLR7; [3]) of 1.8 nM.

Work on `Cc1c(-c2[nH]c3ccc(N4CCN(CCC(N)=O)C[C@@H]4C)nc3c2C(C)C)cn2ncnc2c1C` [Example 804] yielded an IC50 (human TLR9; [1]) of 18100 nM, an IC50 (human TLR8; [2]) of 0.56 nM and an IC50 (human TLR7; [3]) of 1.2 nM.

Compound `Cc1c(-c2[nH]c3ccc(N4CC5(CN(CC(=O)N(C)C)C5)C4)nc3c2C(C)C)cn2ncnc2c1C` [Example 742, 2-(6-(2-(7,8-dimethyl-[1,2,4]triazolo[1,5-a]pyridin-6-yl)-3-isopropyl-1H-pyrrolo[3,2-b]pyridin-5-yl)-2,6-diazaspiro[3.3]heptan-2-yl)-N,N-dimethylacetamide] has an IC50 (human TLR9; [7]) of 4580 nM, an IC50 (human TLR8; [8]) of 3.1 nM and an IC50 (human TLR7; [9]) of 2.9 nM.

Work on `COc1cc(-c2[nH]c3ccc(C4CCN(C(=O)CN(C)C)CC4)nc3c2C(C)C)cn2ncnc12` [Example 549] yielded an IC50 (human TLR9; [7]) of 401 nM, an IC50 (human TLR8; [8]) of 18 nM and an IC50 (human TLR7; [9]) of 1.8 nM.

Work on `CNC(=O)CNC1CCC(c2ccc3[nH]c(-c4cc(OC)c5ncnn5c4)c(C(C)C)c3n2)C1` (stereo not drawn) [Example 719] yielded an IC50 (human TLR9; [7]) of 2600 nM, an IC50 (human TLR8; [8]) of 7 nM and an IC50 (human TLR7; [9]) of 2.8 nM.

Work on `Cc1c(-c2[nH]c3ccc(N4C[C@@H](C)N(C(=O)CCN5CCC(F)C5)C[C@@H]4C)nc3c2C(C)C)cn2ncnc2c1C` (stereo partly drawn) [Example 909] yielded an IC50 (human TLR9; [1]) of 6710 nM, an IC50 (human TLR8; [2]) of 0.91 nM and an IC50 (human TLR7; [3]) of 0.54 nM.

`CC(C)c1c(-c2cn(C)c3ncccc23)[nH]c2ccc(C3CCC(N4CC5(C4)CS(=O)(=O)C5)CC3)nc12` (stereo not drawn) [Example 256] gave an IC50 (human TLR9; [4]) of 335 nM, an IC50 (human TLR8; [5]) of 3.7 nM and an IC50 (human TLR7; [6]) of 1.2 nM.

Compound `Cc1c(-c2[nH]c3ccc(C4CCN(C(=O)CN(C)C)CC4)nc3c2C(C)C)cn(C)c(=O)c1Cl` [Example 570] has an IC50 (human TLR9; [7]) of 143 nM, an IC50 (human TLR8; [8]) of 57 nM and an IC50 (human TLR7; [9]) of 10 nM.

`COc1cc(-c2[nH]c3ccc(N4CC(NC(=O)CN(C)C)C4)nc3c2C(C)C)cn2ncnc12` [Example 17] gave an IC50 (human TLR9; [4]) of 1100 nM, an IC50 (human TLR8; [5]) of 7.7 nM and an IC50 (human TLR7; [6]) of 3.7 nM.

`COc1cc(-c2[nH]c3ccc(CCC4CN(CC5(C)COC5)C4)nc3c2C(C)C)cn2ncnc12` [Example 706] showed an IC50 (human TLR9; [7]) of 1020 nM, an IC50 (human TLR8; [8]) of 18 nM and an IC50 (human TLR7; [9]) of 8.5 nM.

`COc1cc(-c2[nH]c3ccc(C4CN(C5CCOCC5)CCO4)nc3c2C(C)C)cn2ncnc12` (stereo not drawn) [Example 659] gave an IC50 (human TLR9; [7]) of 8540 nM, an IC50 (human TLR8; [8]) of 24 nM and an IC50 (human TLR7; [9]) of 12 nM.

`[2H]C([2H])([2H])N(C([2H])([2H])[2H])C([2H])([2H])C(=O)N1C([2H])([2H])C([2H])([2H])N(c2ccc3[nH]c(-c4cn5ncnc5c(C)c4C)c(C(C)C)c3n2)C([2H])([2H])C1([2H])[2H]` (single isomer, unassigned) [Example 891] showed an IC50 (human TLR9; [10]) of 18000 nM, an IC50 (human TLR8; [11]) of 0.93 nM and an IC50 (human TLR7; [3]) of 0.64 nM.

In the case of `Cc1cc(-c2[nH]c3ccc(C4CCC(N5CC6(COC6)C5)CC4)nc3c2C(C)C)cn2ncnc12` (stereo not drawn) [Example 281], the IC50 (human TLR9; [4]) is reported as 880 nM, the IC50 (human TLR8; [5]) is reported as 1.7 nM and the IC50 (human TLR7; [6]) is reported as 0.48 nM.

`CNC1CCC(c2ccc3[nH]c(-c4cc(OC)c5ncnn5c4)c(C(C)C)c3n2)CC1` (stereo not drawn) [Example 188] was tested, and the IC50 (human TLR9; [4]) was 158 nM, the IC50 (human TLR8; [5]) was 2.5 nM and the IC50 (human TLR7; [6]) was 0.29 nM.

`COc1cc(-c2[nH]c3cc(C)c(C4CCC(NC5(C)COC5)CC4)nc3c2C(C)C)cn2ncnc12` (stereo not drawn) [Example 311] was tested, and the IC50 (human TLR9; [4]) was 2020 nM, the IC50 (human TLR8; [5]) was 44 nM and the IC50 (human TLR7; [6]) was 2.8 nM.

`Cc1cc(-c2[nH]c3ccc(C4CNCCO4)nc3c2C(C)C)cn(C)c1=O` (stereo not drawn) [Example 679] gave an IC50 (human TLR9; [7]) of 20700 nM, an IC50 (human TLR8; [8]) of 5.8 nM and an IC50 (human TLR7; [9]) of 16 nM.

Compound `CC[C@H]1CNCCN1c1ccc2[nH]c(-c3cn4ncnc4c(C)c3C)c(C(C)C)c2n1` [Example 988] has an IC50 (human TLR9; [1]) of 3770 nM, an IC50 (human TLR8; [2]) of 0.23 nM and an IC50 (human TLR7; [3]) of 0.36 nM.

With `COc1cc(-c2[nH]c3ccc(C4CN(CC(C)(C)O)C4)nc3c2C(C)C)cn2ncnc12` [Example 657] the IC50 (human TLR9; [7]) was 842 nM, the IC50 (human TLR8; [8]) was 10 nM and the IC50 (human TLR7; [9]) was 2.1 nM.

In the case of `Cc1c(-c2[nH]c3ccc(N4CCC(N(C)CCS(C)(=O)=O)CC4)nc3c2C(C)C)cn2ncnc2c1C` [Example 998], the IC50 (human TLR9; [1]) is reported as 20000 nM, the IC50 (human TLR8; [2]) is reported as 0.44 nM and the IC50 (human TLR7; [3]) is reported as 1.9 nM.

`Cc1c(-c2[nH]c3ccc(C4CC(N(C)C)C4)nc3c2C(C)C)cn2ncnc2c1C` (stereo not drawn) [Example 618] gave an IC50 (human TLR9; [7]) of 3700 nM, an IC50 (human TLR8; [8]) of 4.6 nM and an IC50 (human TLR7; [9]) of 4.8 nM.

`Cc1c(-c2[nH]c3ccc(N4C[C@H]5CCC[C@H](C4)N5)nc3c2C(C)C)cn2ncnc2c1C` [Example 974] was tested, and the IC50 (human TLR9; [1]) was 3920 nM, the IC50 (human TLR8; [2]) was 0.71 nM and the IC50 (human TLR7; [3]) was 1.1 nM.

`COc1cc(-c2[nH]c3ccc(C4CCC(N(C)C5COC5)CC4)nc3c2C(C)C)cn2ncnc12` (stereo not drawn) [Example 240] was tested, and the IC50 (human TLR9; [4]) was 5080 nM, the IC50 (human TLR8; [5]) was 16 nM and the IC50 (human TLR7; [6]) was 5.4 nM.

For `Cc1c(-c2[nH]c3ccc(N4CCC(N(C)C5CCOCC5)CC4)nc3c2C(C)C)cn2ncnc2c1C` [Example 55], the IC50 (human TLR9; [4]) was 3340 nM, the IC50 (human TLR8; [5]) was 0.39 nM and the IC50 (human TLR7; [6]) was 2.1 nM.

With `[2H]C([2H])([2H])N(CCC(=O)N1C[C@H](C)N(c2ccc3[nH]c(-c4cn5ncnc5c(C)c4C)c(C(C)C)c3n2)C[C@H]1C)C([2H])([2H])[2H]` [Example 965] the IC50 (human TLR9; [10]) was 6480 nM, the IC50 (human TLR8; [11]) was 1.1 nM and the IC50 (human TLR7; [3]) was 0.39 nM.

`COc1cc(-c2[nH]c3ccc(C4CCC(N(CC(N)=O)CC(N)=O)C4)nc3c2C(C)C)cn2ncnc12` (stereo not drawn) [Example 720] was tested, and the IC50 (human TLR9; [7]) was 20300 nM, the IC50 (human TLR8; [8]) was 94 nM and the IC50 (human TLR7; [9]) was 13 nM.

For `COc1cc(-c2[nH]c3ccc(C4CC(N(C)C)C4)nc3c2C(C)C)cn2ncnc12` (stereo not drawn) [Example 629], the IC50 (human TLR9; [7]) was 1920 nM, the IC50 (human TLR8; [8]) was 6.5 nM and the IC50 (human TLR7; [9]) was 2.6 nM.

Work on `COc1cc(-c2[nH]c3ccc(OC4CN(C(C)C)C4)nc3c2C(C)C)cn2ncnc12` [Example 612, 6-(3-isopropyl-5-((1-isopropylazetidin-3-yl)oxy)-1H-pyrrolo[3,2-b]pyridin-2-yl)-8-methoxy-[1,2,4]triazolo[1,5-a]pyridine] yielded an IC50 (human TLR9; [7]) of 3930 nM, an IC50 (human TLR8; [8]) of 56 nM and an IC50 (human TLR7; [9]) of 13 nM.

Compound `COc1cc(-c2[nH]c3cc(C)c(C4CCC(N(C)CC(C)(C)C)CC4)nc3c2C(C)C)cn2ncnc12` (stereo not drawn) [Example 336] has an IC50 (human TLR9; [4]) of 3440 nM, an IC50 (human TLR8; [5]) of 48 nM and an IC50 (human TLR7; [6]) of 2.8 nM.

`CC(C)c1c(-c2cn(C)c3ncncc23)[nH]c2ccc(N3CCN(C(=O)CN(C)C)CC3)nc12` [Example 123] showed an IC50 (human TLR9; [4]) of 8650 nM, an IC50 (human TLR8; [5]) of 6.3 nM and an IC50 (human TLR7; [6]) of 1.9 nM.

`COc1cc(-c2[nH]c3ccc(N4CCN(CCCS(C)(=O)=O)CC4)nc3c2C(C)C)cn2ncnc12` [Example 132] showed an IC50 (human TLR9; [4]) of 7390 nM, an IC50 (human TLR8; [5]) of 0.51 nM and an IC50 (human TLR7; [6]) of 2.8 nM.

`Cc1c(-c2[nH]c3ccc(C4CCC(NCC5(C)COC5)CC4)nc3c2C(C)C)cn2ncnc2c1C` (stereo not drawn) [Example 474] gave an IC50 (human TLR9; [7]) of 1450 nM, an IC50 (human TLR8; [8]) of 0.43 nM and an IC50 (human TLR7; [9]) of 0.46 nM.

`CCN(C)CCC(=O)N1C[C@H](C)N(c2ccc3[nH]c(-c4cn5ncnc5c(C)c4C)c(C(C)C)c3n2)C[C@H]1C` [Example 906] was tested, and the IC50 (human TLR9; [1]) was 7800 nM, the IC50 (human TLR8; [2]) was 0.67 nM and the IC50 (human TLR7; [3]) was 0.39 nM.

`Cc1c(-c2[nH]c3ccc(C4CCC(N)CC4)nc3c2C(C)C)cn2ncnc2c1C` (stereo not drawn) [Example 469] showed an IC50 (human TLR9; [7]) of 1710 nM, an IC50 (human TLR8; [8]) of 2.9 nM and an IC50 (human TLR7; [9]) of 0.98 nM.
